Values of other authors, collected in patent publication US7857962B2, “Potentiometric electrode, gradient polymer, uses and method of preparation therefor” (Universiteit Antwerpen, priority 2004, dated 2010).

Conditions: basic drugs named for comparison

| SMILES | log P |
| --- | --- |
| Nc1c(Br)cc(Br)cc1CN[C@H]1CC[C@H](O)CC1 [ambroxol, reference compound] | 3.24 |
| CN(Cc1cc(Br)cc(Br)c1N)C1CCCCC1 [bromhexine, reference compound] | 4.03 |
| CC(C)(C)NCC(O)c1cc(Cl)c(N)c(Cl)c1 (centres unmarked) [clenbuterol, reference compound] | 2.91 |

Same assay, conditions: organic acid analytes; n-octanol/water

| SMILES | Log P |
| --- | --- |
| O=C(O)/C=C/C(=O)O [Fumaric, fumaric acid] | +0.49 |
| CC(O)C(=O)O (centres unmarked) [Lactic, lactic acid] | −1.31 |
| O=C(O)CC(O)C(=O)O (centres unmarked) [Malic, malic acid] | −1.22 |
| O=C(O)CCC(=O)O [Succinic, succinic acid] | −1.11 |
| O=C(O)C(O)C(O)C(=O)O (centres unmarked) [Tartaric, tartaric acid] | −1.39 |
